{
  "source": "paper PMC11218446",
  "about": "“Antibacterial efficacy and membrane mechanism of action of the Serratia-derived non-ionic lipopeptide, serrawettin W2-FL10” (Microbiology Spectrum, 2024)",
  "key": {"B. subtilis ATCC 6051": {"system": "B. subtilis ATCC 6051", "test": "Broth microdilution assay (OD 600 nm)", "assay_type": "cell-based, Bacillus subtilis", "method": "(§1) Serrawettin W2-FL10 (95% pure) was tested for antibacterial activity using a broth microdilution susceptibility assay ([6]), with melittin included as an antibiotic control. The serrawettin W2-FL10 was prepared in 70% MeCN to 1.00 mg/mL, from which aliquots were prepared using 70% MeCN to a concentration of 50 µg/mL or 500 µg/mL, while aliquots of melittin were prepared using analytical quality H2O to 128 µg/mL. Fifty microliters of the respective W2-FL10 aliquots or melittin were dispensed into a clear 96-well plate and a microdilution (in 70% MeCN for W2-FL10 or analytical quality H2O for melittin) was performed within the plate. The plate was air-dried to remove the solvent and placed in a desiccator with chloroform for 20 min for sterilization.\nAll the cultures (inoculated into 5 mL MHB, or 5 mL TSB for Listeria and Enterococcus strains) were incubated at 37°C to reach an optical density (OD) of 0.4 at 600 nm (∼10^7 CFU/mL). A 1:20 dilution of the test strain (final concentration of ∼10^5 CFU/mL) was prepared and 100 µL was dispensed into each well (final concentration of W2-FL10 at 1.5–125 µg/mL and melittin at 2–32 µg/mL). Sterile broth and the OD-adjusted inoculum were included as positive controls, while sterile broth (no inoculum) was included as a negative control. The 96-well plate was incubated for 18 h at 37°C. All the tests were performed in triplicate, with independent duplicates. Following incubation, the absorbance was measured using a microtiter plate reader at 600 nm. The 50% growth inhibition concentration (IC50) was determined using GraphPad Prism version 5 for Windows [GraphPad Software, San Diego, USA (www.graphpad.com)]. […]\n(§2) The “top” and “bottom” are the maximum and minimum inhibition responses, respectively, for a particular set of dose-response data, while the activity slope is related to the Hill slope of a sigmoidal binding curve ([16]). […] In addition to the MIC and IC50 inhibition parameters, an inhibition concentration factor (ICF), was calculated as outlined in Rautenbach et al. ([17]). […]"}, "E. faecalis ATCC 7080": {"system": "E. faecalis ATCC 7080", "test": "Broth microdilution assay (OD 600 nm)", "assay_type": "cell-based, Enterococcus faecalis", "method": "as §1\n(§3) All the cultures (inoculated into 5 mL MHB, or 5 mL TSB for Listeria and Enterococcus strains) were incubated at 37°C to reach an optical density (OD) of 0.4 at 600 nm (∼10^7 CFU/mL). A 1:20 dilution of the test strain (final concentration of ∼10^5 CFU/mL) was prepared and 100 µL was dispensed into each well (final concentration of W2-FL10 at 1.5–125 µg/mL and melittin at 2–32 µg/mL). Sterile broth and the OD-adjusted inoculum were included as positive controls, while sterile broth (no inoculum) was included as a negative control. The 96-well plate was incubated for 18 h at 37°C. All the tests were performed in triplicate, with independent duplicates. Following incubation, the absorbance was measured using a microtiter plate reader at 600 nm. The 50% growth inhibition concentration (IC50) was determined using GraphPad Prism version 5 for Windows [GraphPad Software, San Diego, USA (www.graphpad.com)]. A sigmodal curve with variable slope was fitted to each set of dose-repose data according to Rautenbach et al. ([17]) using equation (1):\n(§4) (1) Y=bottom+(top−bottom)/1+10^logIC50×Activity slope\n(§5) The “top” and “bottom” are the maximum and minimum inhibition responses, respectively, for a particular set of dose-response data, while the activity slope is related to the Hill slope of a sigmoidal binding curve ([16]). […] The MIC value was determined for each set of dose-response data as the lowest concentration, resulting in ≥90% inhibition of the target cell growth. In addition to the MIC and IC50 inhibition parameters, an inhibition concentration factor (ICF), was calculated as outlined in Rautenbach et al. ([17]). The ICF is indicative of the concentration increase from the highest concentration where no activity is observed to the MIC of a compound."}, "E. faecalis S1": {"system": "E. faecalis S1", "test": "Broth microdilution assay (OD 600 nm)", "assay_type": "cell-based, Enterococcus faecalis", "method": "as §1, §3, §4, §5"}, "[1]": {"test": "Mammalian cell cytotoxicity, MTT assay", "settings": "CHO cells", "method": "(§6) To determine the biocompatibility of W2-FL10 as a potential therapeutic agent, the in vitro cytotoxicity of W2-FL10 against the CHO cell line ([50]) was determined over 48 h by the Drug Discovery and Development Centre at the University of Cape Town, as previously described by Mosmann ([51]). Briefly, W2-FL10 was prepared to a 10 mM stock solution in 100% DMSO and dilutions were prepared in growth media. The CHO cell line density of 10^5 cells/well in 96-well plates and allowed to attach for 24 h. Thereafter, the compound was added to the 96-well plates at various concentrations from 50 µM down to 16 nM and incubated for a further 48 h. At 44 h, MTT was added to the wells, and the plates were read 4 h later at 540 nm on a spectrophotometer. […] Finally, cell inhibition was plotted against concentration and the 50% lethal concentration (LC50) parameter and a minimum lethal concentration (MLC90) were obtained as described for the dose responses against bacterial targets above (equation 1)."}, "[2]": {"system": "Chinese hamster ovarian (CHO) cell line", "test": "Mammalian cell cytotoxicity, MTT assay", "settings": "CHO cells", "method": "as §6"}, "[3]": {"system": "tested Gram-negative bacterial strains", "test": "Broth microdilution assay (OD 600 nm)", "assay_type": "cell-based", "settings": "results not shown", "excerpt": "The S. marcescens NP2 strain was previously isolated from a wastewater treatment plant sample and the identity of the strain was confirmed via molecular typing ([47]). The S. marcescens NP2 strain was deposited in the South African Rhizobium Culture Collection (SARCC no. 3157). The test bacterial strains used in the broth microdilution assay included L. monocytogenes ATCC 13932, E. faecalis ATCC 7080, S. aureus ATCC 25923, S. aureus RN4220, MRSA Xen 30, E. faecalis S1, E. faecium S1, B. subtilis ATCC 6051, E. coli ATCC 417371, P. aeruginosa ATCC 27853, K. pneumoniae ATCC 13383, A. baumannii ATCC 19606, and S. typhimurium ATCC 14028. […]\nAll the cultures (inoculated into 5 mL MHB, or 5 mL TSB for Listeria and Enterococcus strains) were incubated at 37°C to reach an optical density (OD) of 0.4 at 600 nm (∼10^7 CFU/mL). […] Following incubation, the absorbance was measured using a microtiter plate reader at 600 nm. […]\nas §2"}, "[4]": {"settings": "50% growth inhibition, sigmoidal curve fit, n = 3"}, "[5]": {"settings": "≥90% growth inhibition, OD 600 nm, TSB, 18 h 37°C"}},
  "note": "“And” between values parts separate entries of the source, which are not always exact repeats. Equal values may be shown once. Marks after values point to notes of the source that are not given here.",
  "data": [
    {"compound": "CCCCCCCC1CC(=O)N[C@H](CC(C)C)C(=O)N[C@@H](CO)C(=O)N[C@@H]([C@@H](C)O)C(=O)N[C@H](Cc2ccccc2)C(=O)N[C@@H](CC(C)C)C(=O)O1", "note": "(some centres unmarked) [W2-FL10, serrawettin W2-FL10]", "values": [
      {"measurement": "IC50 ± SD", "setting": "B. subtilis ATCC 6051; [4]", "value": "13.4 ± 0.8 (3) µg/mL"},
      {"measurement": "Selectivity index", "setting": "B. subtilis ATCC 6051; LC50 (CHO)/IC50", "value": 2.2},
      {"measurement": "MIC", "setting": "B. subtilis ATCC 6051; ≥90% growth inhibition, OD 600 nm, MHB, 18 h 37°C", "value": "31.3 μg/mL and 31.3 (42.7) μg/mL"},
      {"measurement": "IC50 ± SD", "setting": "E. faecalis ATCC 7080; [4]", "value": "3.2 ± 0.3 (3) µg/mL"},
      {"measurement": "Selectivity index", "setting": "E. faecalis ATCC 7080; LC50 (CHO)/IC50", "value": 9.1},
      {"measurement": "MIC", "setting": "E. faecalis ATCC 7080; [5]", "value": "6.3 μg/mL and 6.3 (8.5) μg/mL"},
      {"measurement": "IC50 ± SD", "setting": "E. faecalis S1; [4]", "value": "5.2 ± 0.5 (3) µg/mL"},
      {"measurement": "Selectivity index", "setting": "E. faecalis S1; LC50 (CHO)/IC50", "value": 5.6},
      {"measurement": "ICF (MIC/IC50)^2", "setting": "E. faecalis S1; inhibition concentration factor", "value": 5.4},
      {"measurement": "MIC", "setting": "E. faecalis S1; [5]", "value": "12.5 μg/mL and 12.5 (17.1) μg/mL"},
      {"measurement": "CC50 at 48 h", "setting": "[1]", "value": "40 µM and 29 µg/mL"},
      {"measurement": "MLC, minimum lethal concentration", "setting": "[2]; MTT, 48 h, MLC90", "value": "36.6 (50.0)^e μg/mL"},
      {"measurement": "ICF (MIC/IC50)^2", "setting": "[2]; from MLC and LC50", "value": 1.6},
      {"measurement": "MIC", "setting": "[3]", "value": "> 125", "unit": "µg/mL"}
    ]}
  ]
}
